From PubChem BioAssay AID330 (DTP/NCI, 2004)
Several values for one entry are separate records, joined by “and”; a condition that tells them apart may be missing. Equal entries are not always repeated. Inconclusive results and toxic doses are left out. How the source made its calls: active means survival T/C of 150% or more; inactive means T/C below 125% in these data.

Test system: P388 leukemia ip, CD2F1 mice, survival T/C
Assay: NCI In Vivo Anticancer Drug Screen. Data for tumor model P388 Leukemia (intraperitoneal) in CD2F1 (CDF1) mice
Settings: endpoint: median survival time, higher = longer survival
How it was run: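 Mice carrying the transplanted tumor received test compound or vehicle. Survival was recorded in each group, and the value is the treated-group measurement divided by that of the vehicle-treated control group.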

[1] = dose: 50.0 mg/kg/injection, schedule: Q01DX005 (ip), vehicle: Klucel (hydroxypropylcellulose) (HPC)
[2] = dose: 100.0 mg/kg/injection, schedule: Q01DX005 (ip), vehicle: Klucel (hydroxypropylcellulose) (HPC)
[3] = dose: 200.0 mg/kg/injection, schedule: Q01DX005 (ip), vehicle: Klucel (hydroxypropylcellulose) (HPC)

Measured: T/C

Nc1nc(SCc2ccccc2)c2ncn(CCCl)c2n1
inactive: dose: 0.78 mg/kg/injection, schedule: Q01DX009 (ip), vehicle: saline 97 % of control | dose: 1.56 mg/kg/injection, schedule: Q01DX009 (ip), vehicle: saline 101 % of control | dose: 3.12 mg/kg/injection, schedule: Q01DX009 (ip), vehicle: saline 105 % of control | dose: 6.25 mg/kg/injection, schedule: Q01DX009 (ip), vehicle: saline 102 % of control and 95 % of control | dose: 6.25 mg/kg/injection, schedule: Q01DX009 (ip), vehicle: suspension in saline 103 % of control | dose: 25.0 mg/kg/injection, schedule: Q01DX009 (ip), vehicle: saline 100 % of control | dose: 50.0 mg/kg/injection, schedule: Q01DX009 (ip), vehicle: saline 111 % of control | dose: 50.0 mg/kg/injection, schedule: Q01DX009 (ip), vehicle: suspension in saline 94 % of control

CCOC(=O)C(=O)C(C(=O)c1ccccn1)c1nc2n(c1O)C(=N)N=N2 (configuration not stated)
inactive: dose: 50.0 mg/kg/injection, schedule: Q01DX005 (ip), vehicle: saline with Tween-80 102 % of control | dose: 100.0 mg/kg/injection, schedule: Q01DX005 (ip), vehicle: saline with Tween-80 94 % of control | dose: 200.0 mg/kg/injection, schedule: Q01DX005 (ip), vehicle: saline with Tween-80 87 % of control

COc1cc2nc(C)[nH]c(=O)c2cc1OC
inactive: [1] 109 % of control | [2] 90 % of control | [3] 99 % of control

COc1cc2c(cc1OC)C(C#N)C2 (configuration not stated)
inactive: dose: 0.78 mg/kg/injection, schedule: Q01DX009 (ip), vehicle: saline with Tween-80 100 % of control | dose: 1.56 mg/kg/injection, schedule: Q01DX009 (ip), vehicle: saline with Tween-80 97 % of control | dose: 3.12 mg/kg/injection, schedule: Q01DX009 (ip), vehicle: saline with Tween-80 102 % of control | dose: 6.25 mg/kg/injection, schedule: Q01DX009 (ip), vehicle: saline with Tween-80 102 % of control

C=CCc1c(O)c(OC)cc2c1C(=O)CCCC2
inactive: dose: 100.0 mg/kg/injection, schedule: Q01DX009 (ip), vehicle: Klucel (hydroxypropylcellulose) (HPC) 100 % of control | dose: 200.0 mg/kg/injection, schedule: Q01DX009 (ip), vehicle: Klucel (hydroxypropylcellulose) (HPC) 94 % of control | dose: 400.0 mg/kg/injection, schedule: Q01DX009 (ip), vehicle: Klucel (hydroxypropylcellulose) (HPC) 94 % of control

C=CC(C)(C)c1c(OC)cc(-c2ccccc2)oc1=O
inactive: dose: 8.0 mg/kg/injection, schedule: Q01DX005 (ip), vehicle: Klucel + Tween-80 103 % of control | dose: 16.0 mg/kg/injection, schedule: Q01DX005 (ip), vehicle: Klucel + Tween-80 103 % of control | dose: 32.0 mg/kg/injection, schedule: Q01DX005 (ip), vehicle: Klucel + Tween-80 109 % of control | dose: 64.0 mg/kg/injection, schedule: Q01DX005 (ip), vehicle: Klucel + Tween-80 107 % of control

CCOC(=O)COc1cc2c(cc1Cc1ccc3c(c1)OCO3)OCO2
inactive: dose: 12.5 mg/kg/injection, schedule: Q01DX005 (ip), vehicle: Klucel (hydroxypropylcellulose) (HPC) 96 % of control | dose: 25.0 mg/kg/injection, schedule: Q01DX005 (ip), vehicle: Klucel (hydroxypropylcellulose) (HPC) 96 % of control | [1] 101 % of control | [2] 98 % of control | [3] 99 % of control

CN(CC(=O)O)C(=S)c1ccccc1
inactive: dose: 100.0 mg/kg/injection, schedule: Q01DX001 (ip), vehicle: saline with Tween-80 95 % of control | dose: 200.0 mg/kg/injection, schedule: Q01DX001 (ip), vehicle: saline with Tween-80 95 % of control | dose: 400.0 mg/kg/injection, schedule: Q01DX001 (ip), vehicle: saline with Tween-80 95 % of control

Cc1c(O)c(O)c2c(c1O)N=C(Cl)/C2=C\N=NC(N)=S
inactive: dose: 100.0 mg/kg/injection, schedule: Q01DX001 (ip), vehicle: Klucel (hydroxypropylcellulose) (HPC) 99 % of control | dose: 200.0 mg/kg/injection, schedule: Q01DX001 (ip), vehicle: Klucel (hydroxypropylcellulose) (HPC) 95 % of control | dose: 400.0 mg/kg/injection, schedule: Q01DX001 (ip), vehicle: Klucel (hydroxypropylcellulose) (HPC) 106 % of control

Cc1noc2c1NC(=O)OCC2
inactive: [1] 101 % of control | [2] 95 % of control | [3] 97 % of control

CCCCCCCCCCCCCCCc1cccc(OC)c1C(=O)O
inactive: dose: 7.5 mg/kg/injection, schedule: Q01DX009 (ip), vehicle: saline with Tween-80 107 % of control | dose: 15.0 mg/kg/injection, schedule: Q01DX009 (ip), vehicle: saline with Tween-80 113 % of control | dose: 30.0 mg/kg/injection, schedule: Q01DX009 (ip), vehicle: saline with Tween-80 116 % of control
